Experimental data published in PMC5415745, “Drug-transporter mediated interactions between anthelminthic and antiretroviral drugs across the Caco-2 cell monolayers” (BMC Pharmacology & Toxicology, 2017).
“And” between values parts separate entries of the source, which are not always exact repeats. Identical values can stand only once. “Also recorded” adds a separate entry of the source.

How the values were obtained:
[1] = Bidirectional (AP→BL, BL→AP) drug transport across Caco-2 cell monolayers in transwells: cumulative transport, Papp, efflux ratio; HPLC or radiolabeled assay; details: human
Caco-2 cell monolayers = experiment: as above
[2] = [3H] LPV alone, 60 min, individual experiments 1-3
[3] = [3H] LPV alone, 60 min, mean, n=3
[4] = [3H] LPV alone, 120 min, individual experiments 1-3
[5] = [3H] LPV alone, 120 min, mean, n=3
[6] = [3H] LPV alone, 180 min, individual experiments 1-3
[7] = [3H] LPV alone, 180 min, mean, n=3
[8] = [3H] LPV alone, 240 min, individual experiments 1-3
[9] = [3H] LPV alone, 240 min, mean, n=3
[10] = [3H] LPV alone, after 60 min, samples 1-3
[11] = labelled drug is the interacting drug
[12] = 120 min, individual samples 1-3
[13] = 180 min, individual samples 1-3
[14] = 240 min, individual samples 1-3
[15] = IVM alone (SQV experiment), 60 min, mean
[16] = IVM alone (SQV experiment), 120 min, mean
[17] = IVM alone (SQV experiment), 120 min, samples 1-3
[18] = IVM alone (SQV experiment), 180 min, mean
[19] = IVM alone (SQV experiment), 180 min, samples 1-3
[20] = IVM alone (SQV experiment), 240 min, mean
[21] = IVM alone (SQV experiment), 240 min, samples 1-3
[22] = IVM alone (SQV experiment), after 60min, individual samples
[23] = IVM alone (SQV experiment), after 60min, mean
[24] = IVM alone, 60 min, individual experiments 1-3
[25] = IVM alone, 120 min, individual experiments 1-3
[26] = IVM alone, 180 min, individual experiments 1-3
[27] = IVM alone, 240 min, individual experiments 1-3
[28] = [3H] IVM alone, 60 min, individual experiments 1-3
[29] = [3H] IVM alone, 60 min, mean, n=3
[30] = [3H] IVM alone, 120 min, individual experiments 1-3
[31] = [3H] IVM alone, 120 min, mean, n=3
[32] = [3H] IVM alone, 180 min, individual experiments 1-3
[33] = [3H] IVM alone, 180 min, mean, n=3
[34] = [3H] IVM alone, 240 min, individual experiments 1-3
[35] = [3H] IVM alone, 240 min, mean, n=3
[36] = [3H] IVM alone, after 60 min, mean, n=3
[37] = [3H] IVM alone, after 60 min, samples 1-3
[38] = samples after 60min, individual samples 1-3, IVM alone
[39] = samples after 60min, mean n=3, IVM alone

## Cc1cccc(C)c1OCC(=O)N[C@@H](Cc1ccccc1)[C@@H](O)C[C@H](Cc1ccccc1)NC(=O)[C@H](C(C)C)N1CCCNC1=O [LPV, lopinavir]
[1]; Caco-2, Papp AP → BL, mean (n=3) after 60 min, drug A alone, or label 'A + B' = transport of A in presence of interacting drug B, concentrations per Table 1
  Papp A→B at 60 min: 4.8 ×10⁻⁶ cm/s
[1]; Caco-2, Papp BL → AP, mean (n=3) after 60 min, drug A alone, or label 'A + B' = transport of A in presence of interacting drug B, concentrations per Table 1
  Papp B→A at 60 min: 32.1 ×10⁻⁶ cm/s
[1]; Caco-2, PappAB Papp, [3H] LPV alone, after 60 min, samples 1-3
  Papp A→B at 60 min: 5.95 ×10⁻⁶ cm/s
[1]; Caco-2, PappBA Papp, [3H] LPV alone, after 60 min, samples 1-3
  Papp B→A at 60 min: 36.3 ×10⁻⁶ cm/s
Caco-2 cell monolayers; [2]
  Apical to basal transport: 0.92 pmol and 0.73 pmol and 0.68 pmol
  Basal to apical transport: 4.42 pmol and 4.44 pmol and 5.33 pmol
Caco-2 cell monolayers; [3]
  Apical to basal transport Mean: 0.78 pmol
  Basal to apical transport Mean: 4.73 pmol
Caco-2 cell monolayers; [4]
  Apical to basal transport: 1.24 pmol and 1.79 pmol and 1.27 pmol
  Basal to apical transport: 7.38 pmol and 6.91 pmol and 8.43 pmol
Caco-2 cell monolayers; [5]
  Apical to basal transport Mean: 1.43 pmol
  Basal to apical transport Mean: 7.57 pmol
Caco-2 cell monolayers; [6]
  Apical to basal transport: 1.93 pmol and 2.34 pmol and 1.52 pmol
  Basal to apical transport: 9.01 pmol and 8.46 pmol and 10.62 pmol
Caco-2 cell monolayers; [7]
  Apical to basal transport Mean: 1.93 pmol
  Basal to apical transport Mean: 9.36 pmol
Caco-2 cell monolayers; [8]
  Apical to basal transport: 2.15 pmol and 2.71 pmol and 1.78 pmol
  Basal to apical transport: 11.97 pmol and 11.41 pmol and 12.04 pmol
Caco-2 cell monolayers; [9]
  Apical to basal transport Mean: 2.21 pmol
  Basal to apical transport Mean: 11.81 pmol
Caco-2 cell monolayers; [3H] LPV alone, after 60 min, mean, n=3
  PappBA Mean: 32.09 10^9 cm/s
Caco-2 cell monolayers; [10]
  Apical to basal transport Conc. Apical: 18.43 pmol and 19.89 pmol
  Basal to apical transport Conc. Basal: 14.48 pmol and 17.27 pmol and 21.60 pmol
Caco-2 cell monolayers; [11]
  Effect on the transport of IVM: twofold decrease in the efflux ratio

## CC[C@H](C)[C@H]1O[C@]2(CC[C@@H]1C)C[C@@H]1C[C@@H](C/C=C(\C)[C@@H](O[C@H]3C[C@H](OC)[C@@H](O[C@H]4C[C@H](OC)[C@@H](O)[C@H](C)O4)[C@H](C)O3)[C@@H](C)/C=C/C=C3\CO[C@@H]4[C@H](O)C(C)=C[C@@H](C(=O)O1)[C@]34O)O2 [IVM, ivermectin]
Caco-2 cell monolayers; 60 min, individual samples 1-3
  Apical to basal transport (cumulative, receiver): 0.57 pmol and 0.44 pmol and 1.00 pmol
  Basal to apical transport (cumulative, receiver): 0.65 pmol and 0.55 pmol and 0.96 pmol
Caco-2 cell monolayers; 60 min, mean n=3
  Apical to basal transport (cumulative, receiver), Mean: 0.67 pmol
  Basal to apical transport (cumulative, receiver), Mean: 0.72 pmol
Caco-2 cell monolayers; [12]
  Apical to basal transport (cumulative, receiver): 0.50 pmol and 0.61 pmol and 1.00 pmol
  Basal to apical transport (cumulative, receiver): 1.34 pmol and 1.05 pmol and 1.67 pmol
Caco-2 cell monolayers; 120 min, mean n=3
  Apical to basal transport (cumulative, receiver), Mean: 0.71 pmol
Caco-2 cell monolayers; [13]
  Apical to basal transport (cumulative, receiver): 0.66 pmol and 0.77 pmol and 1.54 pmol
  Basal to apical transport (cumulative, receiver): 1.45 pmol and 1.96 pmol
Caco-2 cell monolayers; 180 min, mean n=3
  Apical to basal transport (cumulative, receiver), Mean: 0.99 pmol
  Basal to apical transport (cumulative, receiver), Mean: 1.63 pmol
Caco-2 cell monolayers; [14]
  Apical to basal transport (cumulative, receiver): 0.96 pmol and 0.81 pmol and 1.30 pmol
  Basal to apical transport (cumulative, receiver): 2.52 pmol and 1.59 pmol and 2.27 pmol
Caco-2 cell monolayers; 240 min, mean n=3
  Apical to basal transport (cumulative, receiver), Mean: 1.03 pmol
  Basal to apical transport (cumulative, receiver), Mean: 2.13 pmol
Caco-2 cell monolayers; [15]
  Apical to basal transport Mean: 0.01145 pmol
  Basal to apical transport Mean: 0.01169 pmol
Caco-2 cell monolayers; IVM alone (SQV experiment), 60 min, samples 1-3
  Basal to apical transport: 0.01229 pmol and 0.00926 pmol
Caco-2 cell monolayers; [16]
  Apical to basal transport Mean: 0.01592 pmol
  Basal to apical transport Mean: 0.0179 pmol
Caco-2 cell monolayers; [17]
  Apical to basal transport: 0.01408 pmol and 0.02131 pmol and 0.01237 pmol
  Basal to apical transport: 0.02106 pmol and 0.01584 pmol and 0.01678 pmol
Caco-2 cell monolayers; [18]
  Apical to basal transport Mean: 0.02075 pmol
  Basal to apical transport Mean: 0.02575 pmol
Caco-2 cell monolayers; [19]
  Apical to basal transport: 0.02329 pmol and 0.01834 pmol and 0.02063 pmol
  Basal to apical transport: 0.02626 pmol
Caco-2 cell monolayers; [20]
  Apical to basal transport Mean: 0.0256 pmol
  Basal to apical transport Mean: 0.0353 pmol
Caco-2 cell monolayers; [21]
  Apical to basal transport: 0.02118 pmol and 0.03003 pmol and 0.0256 pmol
  Basal to apical transport: 0.04523 pmol and 0.02414 pmol and 0.03653 pmol
Caco-2 cell monolayers; [22]
  Apical to basal transport Conc. Basal: 15.84 fmol and 11.06 fmol and 7.45 fmol
  Basal to apical transport Conc. Apical: 13.53 fmol
  PappAB: 10.74 10^6 cm/s and 7.18 10^6 cm/s and 4.31 10^6 cm/s
  PappBA: 7.36 10^6 cm/s and 5.84 10^6 cm/s and 4.54 10^6 cm/s
Caco-2 cell monolayers; [23]
  PappAB Mean: 7.41 10^6 cm/s
  PappBA Mean: 5.92 10^6 cm/s
Caco-2 cell monolayers; [24]
  Apical to basal transport: 8.30 pmol and 7.46 pmol and 8.35 pmol
  Basal to apical transport: 15.75 pmol and 21.16 pmol
Caco-2 cell monolayers; IVM alone, 60 min, mean, n=3
  Apical to basal transport Mean: 8.04 pmol
  Basal to apical transport Mean: 17.70 pmol
Caco-2 cell monolayers; [25]
  Apical to basal transport: 17.04 pmol and 10.98 pmol and 9.22 pmol
  Basal to apical transport: 21.40 pmol and 27.21 pmol and 31.37 pmol
Caco-2 cell monolayers; IVM alone, 120 min, mean, n=3
  Apical to basal transport Mean: 12.41 pmol
  Basal to apical transport Mean: 26.66 pmol
Caco-2 cell monolayers; [26]
  Apical to basal transport: 20.27 pmol and 13.19 pmol and 16.36 pmol
  Basal to apical transport: 26.81 pmol and 40.70 pmol
Caco-2 cell monolayers; IVM alone, 180 min, mean, n=3
  Apical to basal transport Mean: 16.61 pmol
  Basal to apical transport Mean: 31.01 pmol
Caco-2 cell monolayers; [27]
  Apical to basal transport: 16.26 pmol and 22.17 pmol and 13.75 pmol
  Basal to apical transport: 35.20 pmol and 45.80 pmol
Caco-2 cell monolayers; IVM alone, 240 min, mean, n=3
  Apical to basal transport Mean: 17.39 pmol
  Basal to apical transport Mean: 37.70 pmol
Caco-2 cell monolayers; [28]
  Apical to basal transport: 0.01435 pmol and 0.01486 pmol and 0.01544 pmol
  Basal to apical transport: 0.01286 pmol and 0.01268 pmol
Caco-2 cell monolayers; [29]
  Apical to basal transport Mean: 0.01488 pmol
  Basal to apical transport Mean: 0.01303 pmol
Caco-2 cell monolayers; [30]
  Apical to basal transport: 0.0208 pmol and 0.02034 pmol and 0.02175 pmol
  Basal to apical transport: 0.01734 pmol and 0.01856 pmol and 0.01852 pmol
Caco-2 cell monolayers; [31]
  Apical to basal transport Mean: 0.02096 pmol
  Basal to apical transport Mean: 0.01814 pmol
Caco-2 cell monolayers; [32]
  Apical to basal transport: 0.02572 pmol and 0.02395 pmol and 0.02543 pmol
  Basal to apical transport: 0.01707 pmol and 0.0238 pmol and 0.03179 pmol
Caco-2 cell monolayers; [33]
  Apical to basal transport Mean: 0.02503 pmol
  Basal to apical transport Mean: 0.02422 pmol
Caco-2 cell monolayers; [34]
  Apical to basal transport: 0.02516 pmol and 0.02638 pmol and 0.02306 pmol
  Basal to apical transport: 0.0227 pmol and 0.02867 pmol and 0.0342 pmol
Caco-2 cell monolayers; [35]
  Apical to basal transport Mean: 0.02486 pmol
  Basal to apical transport Mean: 0.02852 pmol
Caco-2 cell monolayers; [36]
  PappAB Mean: 14.06 10^6 cm/s
  PappBA Mean: 11.32 10^6 cm/s
Caco-2 cell monolayers; [37]
  Apical to basal transport Conc. Apical: 0.10163 pmol and 0.1066 pmol and 0.10959 pmol
  Basal to apical transport Conc. Apical: 13.56 fmol
  Basal to apical transport Conc. Basal: 0.11067 pmol and 0.12653 pmol and 0.11199 pmol
  PappAB Papp: 16.8 ×10⁻⁶ cm/s and 13.7 ×10⁻⁶ cm/s and 11.7 ×10⁻⁶ cm/s
  PappBA Papp: 14.6 ×10⁻⁶ cm/s and 9.96 ×10⁻⁶ cm/s and 9.43 ×10⁻⁶ cm/s
Caco-2 cell monolayers; [11]
  Effect on the (efflux) transport of SQV: significantly inhibited
  Effect on the efflux of EFV: increased; also recorded: marginally significant increase
  Effect on the efflux transport of LPV: significantly inhibited; also recorded: eightfold inhibition
  Effect on the transport of NVP: did not appear to significantly influence
Caco-2 cell monolayers; [38]
  PappAB Papp: 7.59 10^9 cm/s and 4.95 10^9 cm/s and 10.26 10^9 cm/s
  PappBA Papp: 10.18 10^9 cm/s and 5.89 10^9 cm/s and 10.76 10^9 cm/s
Caco-2 cell monolayers; [39]
  PappAB Mean: 7.60 10^9 cm/s
  PappBA Mean: 8.94 10^9 cm/s
